These results are taken from ChEMBL document CHEMBL1201862, “PubChem BioAssay data set” (2004).

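48-hour exposure; five concentrations; linearly interpolated endpoints. The concentration for 50% growth inhibition is given as GI50.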 Active and inactive are the calls of the source. Rule as the data show it: active = GI50 up to about 1.1 µM and inactive = higher.

Among the test systems are SF-268; NCI-H460; SR; MOLT-4; SK-MEL-5; U-251; MCF7; HL-60; 786-0; T47D; SW-620; UACC-62; UO-31; CAKI-1; COLO 205; KM12; ACHN; HCT-116; NCI/ADR-RES; Malme-3M.
Holding throughout (assay): inhibition of tumour cell growth, NCI panel, 48 h

`O=c1c2ccccc2sc2c(CO)ccc(NCCN3CCCCC3)c12`: the GI50 in the experiment on SF-268 is 3.32 µM (inactive); with NCI-H460, 2.68 µM (inactive); with SR, 0.497 µM (active); in the experiment on MOLT-4 it was 1.04 µM (active); in the experiment with SK-MEL-5, 1.69 µM (inactive); in the experiment with U-251 it was 3.79 µM (inactive). The GI50 in the experiment on MCF7 is 2.99 µM (inactive); in the experiment with HL-60 it was 3.08 µM (inactive); with 786-0, 2.47 µM (inactive); in the experiment on T47D it was 5.25 µM (inactive); in the experiment on SW-620, 2.25 µM (inactive); in the experiment with UACC-62, 4.33 µM (inactive). Besides, the GI50 is 1.88 µM (inactive) in the experiment with UO-31; 3.45 µM (inactive) in the experiment on CAKI-1; 1.92 µM (inactive) with COLO 205; 3.55 µM (inactive) in the experiment with KM12; 2.39 µM (inactive) in the experiment with ACHN; 2.38 µM (inactive) in the experiment on HCT-116. Moreover, the GI50 was 2.64 µM (inactive) in the experiment on NCI/ADR-RES and 2.24 µM (inactive) in the experiment on Malme-3M.

On to `CCOP(=O)(OCC)C(Nc1ccc(F)cc1)c1ccccc1` (centres undefined), for which the GI50 with SF-268 was > 100 µM (inactive); in the experiment on NCI-H460 it was > 100 µM (inactive); with SR, 97.7 µM (inactive); in the experiment with MOLT-4, 92.9 µM (inactive); in the experiment on SK-MEL-5 it was > 100 µM (inactive); in the experiment with U-251, > 100 µM (inactive). The GI50 in the experiment with MCF7 was > 100 µM (inactive); in the experiment on HL-60, 77.4 µM (inactive); in the experiment with 786-0 it was > 100 µM (inactive); with T47D, 35.1 µM (inactive); in the experiment on SW-620, > 100 µM (inactive); with UACC-62, > 100 µM (inactive). Besides, the GI50 is 82.2 µM (inactive) with UO-31; > 100 µM (inactive) in the experiment with CAKI-1; > 100 µM (inactive) with COLO 205; > 100 µM (inactive) with KM12; > 100 µM (inactive) in the experiment with ACHN; > 100 µM (inactive) with HCT-116. In addition, the GI50 in the experiment with NCI/ADR-RES and in the experiment on Malme-3M was > 100 µM (inactive) throughout.

With `Nc1nc(SCC(=O)c2ccc(Br)cc2)c2nc[nH]c2n1`, the GI50 with SF-268 was 23 µM (inactive); in the experiment on NCI-H460, 28.7 µM (inactive); with SR, 17.9 µM (inactive); with SK-MEL-5 it was 20 µM (inactive); in the experiment on U-251 it was 44.4 µM (inactive); in the experiment on MCF7, 56.4 µM (inactive). In addition, the GI50 in the experiment on HL-60 was 25.3 µM (inactive); in the experiment with 786-0, 42.2 µM (inactive); with T47D, 25.8 µM (inactive); with SW-620, 46.6 µM (inactive); in the experiment on UACC-62 it was 37.7 µM (inactive); with UO-31 it was 27.4 µM (inactive). Further, the GI50 was 26.2 µM (inactive) in the experiment with CAKI-1; 17 µM (inactive) in the experiment with COLO 205; 44.8 µM (inactive) in the experiment with KM12; 34 µM (inactive) in the experiment with ACHN; 31.2 µM (inactive) in the experiment on HCT-116; 27.4 µM (inactive) with NCI/ADR-RES. Besides, the GI50 in the experiment on Malme-3M is 29.4 µM (inactive).

Turning to `CCOC(=O)CN1C(=O)c2cc([N+](=O)[O-])cc3cc([N+](=O)[O-])cc(c23)C1=O`, the GI50 in the experiment with SF-268 is 18.4 µM (inactive); in the experiment with NCI-H460, 73.6 µM (inactive); in the experiment on SR it was 1.45 µM (inactive); in the experiment on MOLT-4 it was 3.56 µM (inactive); in the experiment on SK-MEL-5, 27.3 µM (inactive); in the experiment on U-251, > 88.5 µM (inactive). The GI50 in the experiment on MCF7 is > 84.7 µM (inactive); with HL-60 it was 1.71 µM (inactive); in the experiment with 786-0 it was 48.8 µM (inactive); with T47D, > 100 µM (inactive); with SW-620, 68.5 µM (inactive); with UACC-62, 22.8 µM (inactive). Moreover, the GI50 was 28.7 µM (inactive) in the experiment with UO-31; 30.5 µM (inactive) in the experiment on CAKI-1; 24.7 µM (inactive) in the experiment on COLO 205; > 100 µM (inactive) in the experiment on KM12; 40 µM (inactive) in the experiment on ACHN; 15 µM (inactive) in the experiment with HCT-116. In addition, the GI50 in the experiment with NCI/ADR-RES was > 80.4 µM (inactive); in the experiment with Malme-3M it was 43.5 µM (inactive).

Regarding `CCOC(=O)/C(C(=S)NCc1ccccc1)=C(/N)N1CCCC1`, the GI50 in the experiment with SF-268, with NCI-H460, with SR, in the experiment with MOLT-4, in the experiment on SK-MEL-5 and with U-251 was > 100 µM (inactive) in each case. In addition, the GI50 in the experiment with MCF7, with HL-60, in the experiment on 786-0, in the experiment on T47D, in the experiment with SW-620 and in the experiment with UACC-62 was > 100 µM (inactive) throughout. In addition, the GI50 in the experiment with UO-31 is 56.9 µM (inactive); in the experiment on CAKI-1 it was > 100 µM (inactive); in the experiment on COLO 205, > 100 µM (inactive); in the experiment on KM12, > 100 µM (inactive); in the experiment with ACHN, > 100 µM (inactive); in the experiment on HCT-116, > 100 µM (inactive). The GI50 in the experiment with NCI/ADR-RES and in the experiment with Malme-3M was > 100 µM (inactive) in each case.

As for `CCN(CC)CC/N=c1\c2cc(OC)ccc2[nH]c2c([N+](=O)[O-])ccc(NCCN(CC)CC)c12`, the GI50 was 2.27 µM (inactive) in the experiment on SF-268; 0.386 µM (active) with NCI-H460; 0.16 µM (active) in the experiment on SR; 0.198 µM (active) in the experiment with MOLT-4; 1.57 µM (inactive) in the experiment on SK-MEL-5; 1.24 µM (inactive) in the experiment on U-251. In addition, the GI50 in the experiment on MCF7 was 0.698 µM (active); in the experiment with HL-60, 0.989 µM (active); with 786-0, 0.399 µM (active); with T47D, > 7.38 µM (inactive); with SW-620, 0.6 µM (active); in the experiment on UACC-62, 5.26 µM (inactive). The GI50 in the experiment with UO-31 was 1.17 µM (inactive); in the experiment with CAKI-1 it was 2.33 µM (inactive); with COLO 205, 0.875 µM (active); in the experiment on KM12, 0.875 µM (active); with ACHN, 2.78 µM (inactive); with HCT-116, 0.853 µM (active). Besides, the values for the GI50 in the experiment on NCI/ADR-RES and in the experiment with Malme-3M were 1.01 µM (active) and 1.82 µM (inactive), respectively.

Turning to `O=C(O)c1ccccc1/C=C1/Cc2ccc3c(c2C1=O)CCC3`, the GI50 was 36.1 µM (inactive) in the experiment on SF-268; 45.4 µM (inactive) with NCI-H460; 39.1 µM (inactive) with SR; 33.8 µM (inactive) with MOLT-4; 18.2 µM (inactive) in the experiment on SK-MEL-5; 27.6 µM (inactive) with U-251. Further, the GI50 with MCF7 was 49.5 µM (inactive); in the experiment on HL-60 it was 20.1 µM (inactive); with 786-0, 49 µM (inactive); in the experiment on T47D, 89.3 µM (inactive); in the experiment with SW-620, 58.9 µM (inactive); with UACC-62, 38.9 µM (inactive). Moreover, the GI50 was 39.7 µM (inactive) with UO-31; > 100 µM (inactive) in the experiment with CAKI-1; 19.1 µM (inactive) in the experiment on COLO 205; 37.8 µM (inactive) in the experiment on KM12; 37.7 µM (inactive) with ACHN; 30.7 µM (inactive) in the experiment with HCT-116. The results for the GI50 in the experiment with NCI/ADR-RES and with Malme-3M were 50.2 µM (inactive) and 50.8 µM (inactive), respectively.

For the compound `Cc1c(F)c(NC(=O)CN(C)C)c2c(=O)cc(-c3ccc(NC(=O)CN(C)C)c(F)c3)oc2c1F`, the GI50 is 16.6 µM (inactive) with SF-268; 9.35 µM (inactive) in the experiment with NCI-H460; 1.5 µM (inactive) in the experiment with SR; 11.2 µM (inactive) in the experiment with MOLT-4; 15 µM (inactive) in the experiment on SK-MEL-5; 14.2 µM (inactive) in the experiment on U-251. Further, the GI50 is 13.4 µM (inactive) in the experiment with MCF7; 17.1 µM (inactive) with HL-60; 15.9 µM (inactive) with 786-0; 24.2 µM (inactive) in the experiment on T47D; 16.2 µM (inactive) in the experiment on SW-620; 19.1 µM (inactive) with UACC-62. The GI50 with UO-31 is 13.6 µM (inactive); with CAKI-1, 10.9 µM (inactive); in the experiment on COLO 205, 10.9 µM (inactive); in the experiment with KM12 it was 13.4 µM (inactive); in the experiment with ACHN, 15.4 µM (inactive); with HCT-116, 12.9 µM (inactive). The GI50 in the experiment on NCI/ADR-RES was 14.8 µM (inactive); with Malme-3M it was 26.3 µM (inactive).

In the case of `Brc1ccc2[nH]cc(-c3csc(-c4ccccn4)n3)c2c1`, the GI50 in the experiment on SF-268 was 30.6 µM (inactive); with NCI-H460, 6.59 µM (inactive); in the experiment with SR, 15.4 µM (inactive); with MOLT-4 it was 5.28 µM (inactive); in the experiment with SK-MEL-5, 16.4 µM (inactive); in the experiment with U-251 it was 13.5 µM (inactive). The GI50 in the experiment with MCF7 is 10.3 µM (inactive); with HL-60, 26.5 µM (inactive); with 786-0, 7.93 µM (inactive); with T47D, 10.7 µM (inactive); in the experiment with SW-620, 18.4 µM (inactive); in the experiment with UACC-62 it was 8.18 µM (inactive). For the same compound, the GI50 is 59.7 µM (inactive) in the experiment with UO-31; 17.1 µM (inactive) in the experiment on CAKI-1; 13.4 µM (inactive) with COLO 205; 9.16 µM (inactive) in the experiment with KM12; 5.85 µM (inactive) in the experiment with ACHN; 15.1 µM (inactive) in the experiment on HCT-116. Also, the GI50 in the experiment on NCI/ADR-RES was > 100 µM (inactive); in the experiment on Malme-3M, 22.1 µM (inactive).

`N#C/C(=C\c1ccc2[nH]ccc2c1)C(=O)NCCCCNC(=O)/C(C#N)=C/c1ccc2[nH]ccc2c1`: the GI50 with SF-268, in the experiment on NCI-H460, with SR, in the experiment with MOLT-4, in the experiment with SK-MEL-5 and in the experiment with U-251 was > 31.6 µM (inactive) throughout. Also, the GI50 in the experiment on MCF7 is > 10 µM (inactive); with HL-60, > 31.6 µM (inactive); in the experiment on 786-0, > 31.6 µM (inactive); in the experiment on T47D, > 10 µM (inactive); in the experiment with SW-620, > 31.6 µM (inactive); in the experiment with UACC-62, > 31.6 µM (inactive). Also, the GI50 with UO-31, in the experiment on CAKI-1, with COLO 205, with KM12, with ACHN and in the experiment with HCT-116 was > 31.6 µM (inactive) each time. Further, the GI50 in the experiment with NCI/ADR-RES was > 10 µM (inactive); with Malme-3M it was > 31.6 µM (inactive).
